In patent publication US8217045B2, “Organic compounds” (Novartis AG, priority 2007, dated 2012):
Residue numbers refer to the chain shown, from its start.

Columns and labels:
[1] = target: T1, c-Abl (His-cAbl) (Homo sapiens, UniProt P00519); assay: in vitro enzyme assay, wild-type Abl catalysed phosphorylation; format: biochemical; conditions: 16 nM His-cAbl, 10 μM ATP, 1 hour at 30° C.; read-out: IC50, inhibition of wild-type Abl catalysed phosphorylation
T1 construct: The His-tagged kinase domain of Abl is cloned and expressed; His tag; made in house; host or cells: baculovirus/Sf9
T1 sequence (P00519 242-493 limits assumed): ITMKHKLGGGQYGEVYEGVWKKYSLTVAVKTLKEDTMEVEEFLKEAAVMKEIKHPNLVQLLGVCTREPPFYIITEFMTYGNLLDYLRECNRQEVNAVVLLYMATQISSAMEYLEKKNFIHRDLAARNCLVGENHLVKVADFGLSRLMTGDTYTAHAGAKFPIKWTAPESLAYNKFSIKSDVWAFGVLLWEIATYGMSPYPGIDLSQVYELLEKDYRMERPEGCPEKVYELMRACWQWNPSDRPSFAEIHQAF
Method: (§1) Test for activity against wild-type and mutant Abl protein tyrosine kinase:
(§2) The test, an in vitro enzyme assay, is conducted as a filter binding assay as follows: The His-tagged kinase domain of Abl is cloned and expressed in the baculovirus/Sf9 system as described by Bhat et al., J. Biol. Chem. 1997; 272:16170-16175. A protein of 37 kD (Abl kinase) is purified by a two-step procedure over a Cobalt metal chelate column followed by an anion exchange column with a yield of 1-2 mg/L of Sf9 cells. The purity of the Abl kinase is >90% as judged by SDS-PAGE after Coomassie blue staining.
(§3) Based on the optimized assay conditions for the individual kinases a specific assay set-up was chosen. The assays were prepared and incubated on a liquid handling robot system using 384-well plates. To the assay plates containing 50 nL compound or control solutions, 4.5 μL of solution A consisting of the peptide substrate and ATP in assay buffer were added. The reactions were initiated by adding 4.5 μL of solution B consisting of the respective kinase in assay buffer. The reactions were incubated for 1 hour at 30° C. in a final reaction volume of 9.05 μL. Based on a generic assay buffer (50 mM HEPES pH7.5, 1 mM DTT, 0.02% Tween20, 0.02% BSA), following components were added depending on the chosen kinase: • c-Abl: 16 nM His-cAbl, 5 μM peptide substrate (FITC-Ahx-EAIYAAPFAKKK-CONH2), 10 mM MgCl2, 10 μM ATP • c-Abl-T315I: 2.4 nM His-cAbl-T315I, 5 μM peptide substrate (FITC-Ahx-EAIYAAPFAKKK-CONH2), 10 mM MgCl2, 10 μM ATP
(§4) After incubation, the kinase reactions were stopped by the addition of 16 μL of stop solution (100 mM HEPES, 5% DMSO, 0.1% Coating reagent, 10 mM EDTA, 0.015% Brij 35). Subsequently, the assay plates were transferred to a Caliper LabChip3000 reader and the unphosphorylated substrate and the phosphorylated product were separated and quantitated in a microfluidic chip.

[2] = target: Bcr-Abl (Homo sapiens, UniProt P00519); assay: Bcr-Abl phosphorylation capture ELISA in 32D-Bcr-Abl cells; format: cell-based, murine; conditions: 90 min at 37° C., read-out: IC50, reduction of Bcr-Abl phosphorylation
Excerpt: 32D cl3 cells are obtained from the American Type Culture Collection (ATCC CRL11346) and Ba/F3 cells are obtained from the German Collection of Microorganisms and Cell Cultures (DSMZ, Braunschweig and DSMZ No. ACC 300) Palacios et al., Nature, 1984; 309:126 and Palacios et al., Cell, 1985:41:72.
Oncogene 1996; 12: 839-46; and Okuda K, Golub T R, Gilliland D G, Griffin J D. p210BCR-ABL, p190BCR-ABL, and TEL/ABL activate similar signal transduction pathways in hematopoietic cell lines. Oncogene 1996; 13:1147-52.)
The cells express the fusion Bcr-Abl protein with a constitutively active Abl kinase and proliferate growth factor independent. The cells are expanded in RPMI 1640 (AMIMED), 10% fetal calf serum (FCS), 2 mM glutamine (Gibco) (“complete medium”), and a working stock is prepared by freezing aliquots of 2×10^6 cells per vial in freezing medium (95% FCS, 5% DMSO (SIGMA)). After thawing, the cells are used during maximally 10-12 passages for the experiments. The antibody anti-Abl SH3 domain cat. #06-466 from Upstate Biotechnology is used for the ELISA. For detection of Bcr-Abl phosphorylation, the anti-phosphotyrosine antibody Ab PY20, labelled with alkaline phosphatase ([…]) from ZYMED (cat. #03-7722) is used. […]

[3] = target: T2, c-Abl-T315I (His-cAbl-T315I) (Homo sapiens, UniProt P00519, T315I); assay: in vitro enzyme assay, T315I mutant Abl catalysed phosphorylation; format: biochemical; conditions: 2.4 nM His-cAbl-T315I, 10 μM ATP, 1 hour at 30° C.; read-out: IC50, inhibition of T315I mutant Abl catalysed phosphorylation
T2 construct: The His-tagged kinase domain of Abl is cloned and expressed; His tag; made in house; host or cells: baculovirus/Sf9
T2 sequence (P00519 242-493 T315I limits assumed): T1 sequence (P00519 242-493 limits assumed) with T74I
Method: as §1, §2, §3, §4

SMILES | IC50 [1] | melting point | also measured
CC(=O)Nc1cc(Oc2ccc3c(C(=O)Nc4cc(-n5cnc(C)c5)cc(C(F)(F)F)c4)cccc3c2)ccn1 [Example 1, 6-[[2-(Acetylamino)-pyridin-4-yl]oxy]-naphthalene-1-carboxylic acid [3-(4-methyl-1H-imidazol-1-yl)-5-(trifluoromethylphenyl)]amide] | < 5 nM |  | 
Cc1cn(-c2cc(NC(=O)c3cccc4cc(Oc5ccnc(NC(=O)C6CC6)c5)ccc34)cc(C(F)(F)F)c2)cn1 [Example 2, 6-[[2-(Cyclopropylcarbonyl)amino-pyridin-4-yl]oxy]-naphthalene-1-carboxylic acid [3-(4-methyl-1H-imidazol-1-yl)-5-(trifluoromethylphenyl)]amide] |  | 242 to 244 °C | IC50 [2]: 21 to 179 nM
Cc1cn(-c2cc(NC(=O)c3cccc4cc(Oc5ccnc(NC(=O)C(C)(C)C)c5)ccc34)cc(C(F)(F)F)c2)cn1 [Example 3] |  | > 120 °C | 
Cc1cn(-c2cc(NC(=O)c3cccc4cc(Oc5ccnc(NC(=O)C(C)(C)O)c5)ccc34)cc(C(F)(F)F)c2)cn1 [Example 4, 6-[[2-(2-Hydroxy-2-methylpropylcarbonyl)amino-pyridin-4-yl]oxy]-naphthalene-1-carboxylic acid [3-(4-methyl-1H-imidazol-1-yl)-5-(trifluoromethylphenyl)]amide] |  | 248 to 251 °C | 
Cc1cn(-c2cc(NC(=O)c3cccc4cc(Oc5ccnc(NC(=O)N(C)C)c5)ccc34)cc(C(F)(F)F)c2)cn1 [Example 5] | < 5 nM | > 138 °C | 
Cc1cn(-c2cc(NC(=O)c3cccc4cc(Oc5ccnc(Nc6ccccn6)c5)ccc34)cc(C(F)(F)F)c2)cn1 [Example 6, 6-[[2-[(2-Pyridinyl)amino]-4-pyridinyl]oxy]-naphthalene-1-carboxylic acid [3-(4-methyl-1H-imidazol-1-yl)-5-(trifluoromethylphenyl)]amide] |  | 204 to 206 °C | IC50 [3]: 47 to 49 nM
CC(=O)Nc1cc(Oc2ccc3c(C(=O)Nc4ccc(CN5CCN(C)CC5)c(C(F)(F)F)c4)cccc3c2)ccn1 [Example 7, 6-[[2-(Acetylamino)-pyridin-4-yl]oxy]-naphthalene-1-carboxylic acid [4-[(4-methyl-1-piperazinyl)methyl]-3-trifluoromethyl-phenyl]amide] | < 5 nM | 112 to 114 °C | 
CN1CCN(Cc2ccc(NC(=O)c3cccc4cc(Oc5ccnc(NC(=O)C6CC6)c5)ccc34)cc2C(F)(F)F)CC1 [Example 8, 6-[[2-(Cyclopropylcarbonyl)amino-pyridin-4-yl]oxy]-naphthalene-1-carboxylic acid [4-[(4-methyl-1-piperazinyl)methyl]-3-trifluoromethyl-phenyl]amide] | < 5 nM |  | 
CN1C2CCCC1CN(Cc1ccc(NC(=O)c3cccc4cc(Oc5ccnc(NC(=O)C6CC6)c5)ccc34)cc1C(F)(F)F)C2 [Example 11] | < 5 nM |  | 
Cc1ncc(-c2cc(NC(=O)c3cccc4cc(Oc5ccnc(NC(=O)C6CC6)c5)ccc34)cc(C(F)(F)F)c2)[nH]1 [Example 15] |  |  | IC50 [3]: 36 to 57 nM
CC(=O)Nc1cc(Oc2ccc3c(C(=O)Nc4cc(-n5cnc(C)c5)cc(C(F)(F)F)c4)cccc3c2)ncn1 [Example 19, 6-[[6-(Acetylamino)-pyrimidin-4-yl]oxy]-naphthalene-1-carboxylic acid [3-(4-methyl-imidazol-1-yl)-5-trifluoromethyl-phenyl]-amide] | < 5 nM |  | 
Cc1cn(-c2cc(NC(=O)c3cccc4cc(Oc5cc(NC(=O)C6CC6)ncn5)ccc34)cc(C(F)(F)F)c2)cn1 [Example 20, 6-[[6-(Cyclopropanecarbonyl)amino-pyrimidin-4-yl]oxy]-naphthalene-1-carboxylic acid [3-(4-methyl-imidazol-1-yl)-5-trifluoromethyl-phenyl]-amide] |  | 216 to 220 °C | 
Cc1cn(-c2cc(NC(=O)c3cccc4cc(Oc5cc(N)ncn5)ccc34)cc(C(F)(F)F)c2)cn1 [Example 21, 6-[[6-Amino-pyrimidin-4-yl]oxy]-naphthalene-1-carboxylic acid [3-(4-methyl-imidazol-1-yl)-5-trifluoromethyl-phenyl]-amide] |  | > 148 °C | 
Cc1cn(-c2cc(NC(=O)c3cccc4cc(Oc5ccnc(Nc6nccs6)c5)ccc34)cc(C(F)(F)F)c2)cn1 [Example 22, 6-[[N-[2-(4-methyl-2-thiazolyl)amino]-pyridin-4-yl]oxy]-naphthalene-1-carboxylic acid [3-(4-methyl-1H-imidazol-1-yl)-5-(trifluoromethylphenyl)]amide] |  | 277 to 282 °C | 
Cc1cn(-c2cc(NC(=O)c3cccc4cc(Oc5ccnc(NC(=O)[C@@H]6CCCN6)c5)ccc34)cc(C(F)(F)F)c2)cn1 [Example 25, 6-[[2-[(2S)-2-Pyrrolidinecarbonyl]amino-pyridin-4-yl]oxy]-naphthalene-1-carboxylic acid [3-(4-methyl-1H-imidazol-1-yl)-5-(trifluoromethylphenyl)]amide] |  |  | IC50 [3]: 65 to 68 nM
